For 1 compound, cell viability and CC50 results are on record in patent US20240285497A1, “METHOD FOR EVALUATING AN ABILITY OF A TEST SAMPLE TO TRIGGER A FOREIGN BODY REACTION IN THE SKIN, A METHOD FOR SCREENING A SUBSTANCE HAVING AN ABILITY TO INHIBIT A FOREIGN BODY REACTION IN THE SKIN, AND AN AGENT FOR INHIBITING A FOREIGN BODY REACTION IN THE SKIN” (priority 2021, published 2024).

The series deals with HaCaT cells. Kind of series: Safety evaluation: cell viability of HaCaT cells by WST-1 method. It counts as cell-based, human. The following applies: 24 hours. On the procedure:
The safety of Fraglide-1 was examined by a viable cell counting method using a water-soluble tetrazolium salt (WST-1). Specifically, HaCaT cells were suspended in DMEM medium at the concentration of 1×10^5 cells/mL. The obtained cell suspension was seeded in a white 96-well plate (ThermoFisher Scientific; Catalogue No. 136102) in an amount of 100 μL per well so that the number of cells per well was 10,000 cells/well. After 24 hours incubation at 37° C. and 5% CO2 in accordance with a conventional method, DMEM medium was removed and then either 100 μL of DMEM medium containing Fraglide-1 at a predetermined concentration or, as a control, 100 μL of DMEM medium not containing Fraglide-1 was added, followed by further incubation for 24 hours at 37° C. and 5% CO2. After the incubation for 24 hours, the number of viable cells was measured by using a premix reagent containing WST-1 (“Premix WST-1 Cell Proliferation Assay System”, Catalogue No. MK400, Takara Bio Inc., Shiga, Japan) in accordance with the procedure described in Experiment 1-2. The results shown in FIG. 16 are the mean of values obtained from three independent experiments, and the error bars represent standard error (SE).

Structures are written as SMILES.

On to `O=C1C=C(c2ccccc2)C(O)O1` (centres unmarked) [Fraglide-1, 5-hydroxy-4-phenyl-2(5H)butenolide], for which the cell viability entry (500 μM, HaCaT cells) is “more than 50%”. Also, the CC50 (read-out: LC50 (Median Lethal Concentration) against HaCaT cells) was over 500 µM.
